Source: US20090012079A1, “Triazolopyridine Compounds” (priority 2006, published 2009)

tested on: TNFα release from human peripheral blood mononuclear cells; test: TNFα screen: inhibition of LPS-stimulated TNFα release from human peripheral blood mononuclear cells (ELISA); format: cell-based; details: human PBMC, LPS stimulation, 18 hours incubation, TNFα in supernatant by ELISA; read-out: TNF IC50
Experimental: Venous blood is collected from healthy volunteers and the mononuclear cells purified by centrifugation through Histopaque (Ficoll) cushions. TNFα production from these cells is stimulated by addition of lipopolysaccharide. After 18 hours incubation in the presence of LPS, the cell supernatant is removed and the concentration of TNFα in the supernatant determined by ELISA. Addition of the compounds of the invention reduces the amount of TNFα produced. An IC50 is determined which is equal to the concentration of compound that gives 50% inhibition of TNFα production as compared to the LPS stimulated control wells.

Q: With `CC(C)(C)c1cc(NC(=O)NCc2ccccc2Sc2ccc3nnc(-c4ccc(CN5CCOCC5)cc4)n3c2)n(-c2ccc(Cl)c(O)c2)n1` [Example 7, 1-[5-tert-Butyl-2-(4-chloro-3-hydroxyphenyl)-2H-pyrazol-3-yl]-3-{2-[3-(4-morpholin-4-ylmethylphenyl)-[1,2,4]triazolo[4,3-a]pyridin-6-ylsulfanyl]benzyl}urea] as the compound, how does the IC50 read?
A: 3 nM

Q: How did the IC50 turn out when `CC(C)(C)c1cc(NC(=O)NCc2ccccc2Sc2ccc3nnc(-c4cccc(OCCN5CCOCC5)c4)n3c2)n(-c2ccc(O)c(Cl)c2)n1` [Example 9, 1-[5-tert-Butyl-2-(3-chloro-4-hydroxyphenyl)-2H-pyrazol-3-yl]-3-(2-{3-[3-(2-morpholin-4-ylethoxy)phenyl]-[1,2,4]triazolo[4,3-a]pyridin-6-ylsulfanyl}benzyl)urea] was run?
A: 5.6 nM

Q: How did the IC50 turn out when `CSCC(C)(C)c1cc(NC(=O)NCc2ccccc2Sc2ccc3nnc(-c4cc(Cl)ccc4O)n3c2)n(-c2cccc(CN(C)C)c2)n1` [Example 11, 1-{2-[3-(5-Chloro-2-hydroxy-phenyl)-[1,2,4]triazolo[4,3-a]pyridin-6-ylsulfanyl]benzyl}-3-[2-(3-dimethylaminomethyl-phenyl)-5-(1,1-dimethyl-2-methylsulfanylethyl)-2H-pyrazol-3-yl]urea] was run?
A: 4.9 nM

Q: How did the IC50 turn out when `CN(C)CCOc1cccc(-n2nc(C(C)(C)C)cc2NC(=O)NCc2ccccc2Sc2ccc3nnc(-c4cc(Cl)ccc4O)n3c2)c1` [Example 1, 1-{5-tert-Butyl-2-[3-(2-dimethylaminoethoxy)phenyl]-2H-pyrazol-3-yl}-3-{2-[3-(5-chloro-2-hydroxyphenyl)-[1,2,4]triazolo[4,3-a]pyridin-6-ylsulfanyl]benzyl}urea] was run?
A: 5.6 nM

Q: With `CC(C)(C)c1cc(NC(=O)NCc2ccccc2Sc2ccc3nnc(-c4cc(O)ccc4Cl)n3c2)n(-c2cccc(CN3CCOCC3)c2)n1` [Example 6, 1-[5-tert-Butyl-2-(3-morpholin-4-ylmethylphenyl)-2H-pyrazol-3-yl]-3-{2-[3-(2-chloro-5-hydroxyphenyl)-[1,2,4]triazolo[4,3-a]pyridin-6-ylsulfanyl]benzyl}urea] as the compound, how does the IC50 read?
A: 1.8 nM

Q: Which IC50 does the source give for `CN(C)Cc1cccc(-n2nc(C(C)(C)C)cc2NC(=O)NCc2ccccc2Sc2ccc3nnc(-c4cc(O)ccc4Cl)n3c2)c1` [Example 4, 1-[5-tert-Butyl-2-(3-dimethylaminomethylphenyl)-2H-pyrazol-3-yl]-3-{2-[3-(2-chloro-5-hydroxy-phenyl)-[1,2,4]triazolo[4,3-a]pyridin-6-ylsulfanyl]benzyl}urea] here?
A: 8.2 nM

Q: How did the IC50 turn out when `CC(C)(C)c1cc(NC(=O)NCc2ccccc2Sc2ccc3nnc(-c4cc(Cl)ccc4O)n3c2)n(-c2cccc(CN3CCOCC3)c2)n1` [Example 5, 1-[5-tert-Butyl-2-(3-morpholin-4-ylmethylphenyl)-2H-pyrazol-3-yl]-3-{2-[3-(5-chloro-2-hydroxyphenyl)-[1,2,4]triazolo[4,3-a]pyridin-6-ylsulfanyl]benzyl}urea] was run?
A: 2.5 nM

Q: For `CC(C)(C)c1cc(NC(=O)NCc2ccccc2Sc2ccc3nnc(-c4ccc(CN5CCOCC5)cc4)n3c2)n(-c2ccc(O)c(Cl)c2)n1` [Example 8, 1-[5-tert-Butyl-2-(3-chloro-4-hydroxyphenyl)-2H-pyrazol-3-yl]-3-{2-[3-(4-morpholin-4-ylmethylphenyl)-[1,2,4]triazolo[4,3-a]pyridin-6-ylsulfanyl]benzyl}urea], which IC50 is on record?
A: 5.5 nM

Q: With `CN(C)Cc1cccc(-n2nc(C(C)(C)C)cc2NC(=O)NCc2ccccc2Sc2ccc3nnc(-c4cc(Cl)ccc4O)n3c2)c1` [Example 3, 1-[5-tert-Butyl-2-(3-dimethylaminomethylphenyl)-2H-pyrazol-3-yl]-3-(2-[3-(5-chloro-2-hydroxyphenyl)-[1,2,4]triazolo[4,3-a]pyridin-6-ylsulfanyl]benzyl)urea] as the compound, how does the IC50 read?
A: 4 nM

Q: Which IC50 does the source give for `CC(C)(C)c1cc(NC(=O)NCc2ccccc2Sc2ccc3nnc(-c4cccc(OCCN5CCOCC5)c4)n3c2)n(-c2ccc(Cl)c(O)c2)n1` [Example 10, 1-[5-tert-Butyl-2-(4-chloro-3-hydroxyphenyl)-2H-pyrazol-3-yl]-3-(2-{3-[3-(2-morpholin-4-yl-ethoxy)phenyl]-[1,2,4]triazolo[4,3-a]pyridin-6-ylsulfanyl}benzyl)urea] here?
A: 4.3 nM

Q: Which IC50 does the source give for `CSCC(C)(C)c1cc(NC(=O)NCc2ccccc2Sc2ccc3nnc(-c4cc(O)ccc4Cl)n3c2)n(-c2cccc(CN(C)C)c2)n1` [Example 2, 1-{2-[3-(2-Chloro-5-hydroxy-phenyl)-[1,2,4]triazolo[4,3-a]pyridin-6-ylsulfanyl]benzyl}-3-[2-(3-dimethylaminomethyl-phenyl)-5-(1,1-dimethyl-2-methylsulfanylethyl)-2H-pyrazol-3-yl]urea] here?
A: 2.9 nM
